Experimental findings from PubChem BioAssay AID1963444 (Molecular Pharmacology Branch, DTP, NCI, 2024) are described below.

“And” between values parts separate entries of the source, which are not always exact repeats. Identical values can stand only once. Where only a bound is given, the exact number is not on record here.

For the experiment, the system named is HSSY-II complex spheroid growth, percent test/control. As to the kind of experiment: Anticancer human tumor HSSY-II cell line growth inhibition [Asc].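 On all read-outs here: spheroids exposed to drug for 7 days before reading.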 Particulars: for viability, T/C: stronger effect = lower value. In a few lines: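 Tumor cells were grown as multicellular spheroids with stromal HUVEC and mesenchymal stem cells and treated singly or in combination. Concentrations fell in half-log steps from the clinical Cmax, or from 10 microM where none was known.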

[1] abbreviates: compound alone, run of 10/11/2022.

For orientation: viability, T/C means the ratio of treated to control. The term IC50 denotes the concentration at which inhibition is half-maximal.

Consider `C#Cc1c(F)ccc2cc(O)cc(-c3ncc4c(N5CC6CCC(C5)N6)nc(OCC56CCCN5CC(F)C6)nc4c3F)c12` (configuration not stated), for which the viability, T/C (compound 0.0316 µM) was 97.9% and 106% and 112%; the viability, T/C (compound 0.1 µM) was 101% and 94.9% and 106%; the viability, T/C (compound 0.316 µM) was 97.4% and 92.7% and 94%; the viability, T/C (compound 1 µM) was 105% and 102% and 90.2%; the viability, T/C (compound 3.16 µM) was 91.3% and 93.7% and 92.3%; the viability, T/C (compound 10 µM) is 74.2% and 53.3% and 44.5%. In addition, the IC50 (curve of compound) was > 10 µM and 8.85 µM.
Regarding `Cn1ncnc1[C@H]1c2n[nH]c(=O)c3cc(F)cc(c23)N[C@@H]1c1ccc(F)cc1`, the viability, T/C (compound 0.000316 µM) is 93.9% and 100% and 96.2%; the viability, T/C (compound 0.001 µM) is 94.1% and 95.6% and 96.7%; the viability, T/C (compound 0.00316 µM) was 90.7% and 96% and 83.2%; the viability, T/C (compound 0.01 µM) was 70.8% and 84.3% and 72.3%; the viability, T/C (compound 0.0316 µM) was 57.3% and 55.5% and 65.2%; the viability, T/C (compound 0.1 µM) is 25.6% and 69.3% and 22.8%. Also, the IC50 (curve of compound) was 0.0388 µM and > 0.1 µM and 0.0426 µM.
With `Cc1c(S(C)(=O)=O)c(-c2cc(F)cc(N3CCN(c4ccc(NS(=O)(=O)c5ccc(NC(CCN6CCC(C(=O)OCCCP(=O)(O)O)CC6)CSc6ccccc6)c(S(=O)(=O)C(F)(F)F)c5)cc4)CC3)c2)c(-c2ccc(Cl)cc2)n1C(C)C` (configuration not stated), the IC50 under setting [1] is > 10 µM and 2.63 µM.
For the molecule `CCN1C(C(=O)NC23CCC(C(=O)O)(CC2)CC3)C(c2cccc(Cl)c2F)C2(C(=O)Nc3cc(Cl)ccc32)C12CCCCC2` (configuration not stated), the viability, T/C is 99.7% and 101% (compound 0.00949 µM); 89.3% [middle of 15 runs] (compound 0.03 µM); 62.1% [middle of 15 runs] (compound 0.0949 µM); 27% [middle of 15 runs] (compound 0.3 µM); 8.58% [middle of 15 runs] (compound 0.949 µM); 2.55% [middle of 15 runs] (compound 3 µM). The IC50 by setting is: under setting [1], 143 nM [middle of 12 runs]; (curve of compound) 0.133 µM and 0.135 µM.
In the case of `C=CC(=O)N1CCN(c2nc(=O)n(-c3c(C)ccnc3C(C)C)c3nc(-c4c(O)cccc4F)c(F)cc23)C(C)C1` (configuration not stated), the viability, T/C was 107% and 90.9% and 100% (compound 0.0316 µM); 108% and 97.8% and 106% (compound 0.1 µM); 106% and 100% and 99.8% (compound 0.316 µM); 106% and 105% and 102% (compound 1 µM); 95.8% and 106% and 103% (compound 3.16 µM); 66.7% and 56.7% and 70.2% (compound 10 µM). In addition, the IC50 (curve of compound) is greater than 10 µM.
Take `NC(=O)C(=Cn1cnc(-c2cc(C(F)(F)F)cc(C(F)(F)F)c2)n1)c1cncnc1` + Cc1c(S(C)(=O)=O)c(-c2cc(F)cc(N3CCN(c4ccc(NS(=O)(=O)c5ccc(NC(CCN6CCC(C(=O)OCCCP(=O)(O)O)CC6)CSc6ccccc6)c(S(=O)(=O)C(F)(F)F)c5)cc4)CC3)c2)c(-c2ccc(Cl)cc2)n1C(C)C: the IC50 is, setting by setting: (curve of first compound, second compound 0.1 µM) 0.0179 µM; (curve of first compound, second compound 0.316 µM) 0.0183 µM; (curve of first compound, second compound 1 µM) 0.0136 µM; (curve of first compound, second compound 3.16 µM) 0.0151 µM; (curve of first compound, second compound 10 µM) 0.0133 µM. In addition, the viability, T/C is 87.7% (second compound 0.1 µM, first compound 0.000949 µM); 86% (second compound 0.1 µM, first compound 0.003 µM); 65.4% (second compound 0.1 µM, first compound 0.00949 µM); 37.4% (second compound 0.1 µM, first compound 0.03 µM); 9.64% (second compound 0.1 µM, first compound 0.0949 µM); 0.51% (second compound 0.1 µM, first compound 0.3 µM). Moreover, the viability, T/C (second compound 0.316 µM, first compound 0.000949 µM) was 99.8%; the viability, T/C (second compound 0.316 µM, first compound 0.003 µM) is 83.5%; the viability, T/C (second compound 0.316 µM, first compound 0.00949 µM) is 71.9%; the viability, T/C (second compound 0.316 µM, first compound 0.03 µM) was 36.1%; the viability, T/C (second compound 0.316 µM, first compound 0.0949 µM) is 6%; the viability, T/C (second compound 0.316 µM, first compound 0.3 µM) was 0.34%. The viability, T/C (second compound 1 µM, first compound 0.000949 µM) is 96.1%; the viability, T/C (second compound 1 µM, first compound 0.003 µM) was 80%; the viability, T/C (second compound 1 µM, first compound 0.00949 µM) was 61.3%; the viability, T/C (second compound 1 µM, first compound 0.03 µM) was 30%; the viability, T/C (second compound 1 µM, first compound 0.0949 µM) is 5.9%; the viability, T/C (second compound 1 µM, first compound 0.3 µM) is 0.23%. For the same molecule, the viability, T/C runs as follows: (second compound 3.16 µM, first compound 0.000949 µM) 91.1%; (second compound 3.16 µM, first compound 0.003 µM) 84.3%; (second compound 3.16 µM, first compound 0.00949 µM) 68.1%; (second compound 3.16 µM, first compound 0.03 µM) 24%; (second compound 3.16 µM, first compound 0.0949 µM) 2.17%; (second compound 3.16 µM, first compound 0.3 µM) 0.24%. Besides, the viability, T/C runs as follows: (second compound 10 µM, first compound 0.000949 µM) 84.9%; (second compound 10 µM, first compound 0.003 µM) 89.6%; (second compound 10 µM, first compound 0.00949 µM) 56.5%; (second compound 10 µM, first compound 0.03 µM) 26.9%; (second compound 10 µM, first compound 0.0949 µM) 1.88%; (second compound 10 µM, first compound 0.3 µM) 0.28%.
For `COc1c(OCCCN2CCOCC2)ccc2c3n(c(=NC(=O)c4cnc(N)nc4)nc12)CCN3`, the viability, T/C was 91.6% and 98.3% and 96.8% (compound 0.00316 µM); 79.1% and 86.2% and 79.5% (compound 0.01 µM); 49.7% and 56.5% and 61.6% (compound 0.0316 µM); 32.7% and 39.2% and 46.4% (compound 0.1 µM); 23.3% and 23.6% and 26.9% (compound 0.316 µM); 13.1% and 13.5% and 11.5% (compound 1 µM). In addition, for the setting “curve of compound”, the IC50 is 0.0368 µM and 0.0531 µM and 0.0718 µM.
